Measured values as given in US20110129508A1 (priority 2008, published 2011).
Like-named read-outs stand apart in the source and are kept apart here.

Columns and labels:
[1] = system: streptozotocin-induced diabetic neuropathy model of neuropathic pain; conditions: rat, in vivo; for maximum non-sedating dose / reduction in hyperalgesia: iv
[2] = dog, in vivo, iv
[3] = in vivo; cited from earlier work
[4] = system: rat model of diabetic neuropathic pain; design: species or system rats; conditions: in vivo
[5] = system: carrageenan paw inflammation model; conditions: rat, in vivo
[6] = system: rat model of prostate bone cancer pain; assay: animal or person; format: in vivo, Male Wistar rats; conditions: rat, in vivo
[7] = rat, in vivo; for maximum non-sedating dose: iv

Question: What does the source list for leconotide [CVID]?
Answer: efficacy compared with gabapentin or morphine alone or in combination [1]: improved efficacy; maximum non-sedating dose [1]: 2.0 mg/kg; reduction in hyperalgesia ([1]; 0.02 mg/kg): approximately 30%; reduction in hyperalgesia ([1]; 2 mg/kg): greater than 50%; adverse effects on cardiovascular function [2]: no adverse effects on cardiovascular function; toxicological or pathological effect [2]: no toxicological or pathological effect was observed; toxicity on intravenous administration [3]: less toxic than ziconotide; antinociceptive effect [4]: dose related antinociceptive effects; analgesic response compared to saline administration [5]: effective at inducing an analgesic response; duration of antinociceptive responses following injection of the bolus ([5]; ip): 4 to 6 h; reversal of the hyperalgesia caused by intratibial prostate bone cancer (FIG. 7) [6]: small, statistically non-significant reversal; antinociceptive effects ([6]; iv): no significant antinociceptive effects; mean rest times [7]: 982.89 s; maximum non-sedating dose [7]: 2 mg/kg

Question: Which maximum non-sedating dose [1] does the source give for `CSCC[C@@H]1NC(=O)[C@H](CC(C)C)NC(=O)[C@H](CCCNC(=N)N)NC(=O)[C@H](CO)NC(=O)[C@@H]2CSSC[C@@H]3NC(=O)[C@H](CO)NC(=O)CNC(=O)[C@H]([C@@H](C)O)NC(=O)[C@H](CSSC[C@H](N)C(=O)N[C@@H](CCCCN)C(=O)NCC(=O)N[C@@H](CCCCN)C(=O)NCC(=O)N[C@@H](C)C(=O)N[C@@H](CCCCN)C(=O)N2)NC(=O)[C@H](CSSC[C@@H](C(N)=O)NC(=O)[C@H](CCCCN)NC(=O)CNC(=O)[C@H](CO)NC(=O)[C@H](CCCNC(=N)N)NC3=O)NC(=O)[C@H](CC(=O)O)NC(=O)[C@H](Cc2ccc(O)cc2)NC1=O` [MVIIA, ziconotide] here?
Answer: 0.02 mg/kg

Question: And the maximum non-sedating dose [7]?
Answer: 0.02 mg/kg
